Reference: patent US7033829B2, “Method to inhibit cell growth using oligonucleotides” (Trustees of Boston University, priority 2000, dated 2006)
Oligonucleotides are written 5' to 3', each unit as a sugar letter and its base; * is a phosphorothioate linkage, no mark a phosphodiester; rarer units and linkages stand in square brackets, end groups in braces. Plain capitals give the bases only. d = 2'-deoxy (DNA); {P} = phosphate

Legend:
mouse skin = assay: Photodamage of UVB-irradiated XPA+/+ and XPA−/− mouse skin; assay type: in vivo; details: XPA−/− mice; 72 hours after last UV (diluent 15±5)
Source text: Patients with a mutated xeroderma pigrnentosum group A (XPA) gene have a greater than 1000 fold increased risk of UV-induced skin cancer. XPA^−/− mice mimic the human syndrome [Kraemer, K. et al., pp. 256–261 In: Molecular Biology of Aging (Bohr, V. A., et al., eds.) Munksgaard, Copenhagen, 1999]. We have previously shown that oligonucleotides, particularly thymidine dinucleotide (pTT) and pGAGTATGAG (SEQ ID NO:1) that are partial homologs of the telomere overhang tandem repeat TTAGGG (SEQ ID NO:11), increase levels of proteins involved in nucleotide excision repair and enhance the DNA repair rate. […] The mice were UV irradiated on day 5 with a previously determined erythemogenic UVB dose. […] Seventy-two hours after the last dose of […], the mouse skin was processed histologically to assess general morphology, proliferation (Ki-67) [Ohike N. and T Morohoshi, Pathol Int (2001), 51:770–777; Billgren, A. M. et al., Breast Cancer Res Treat (2002), 71:161–170], cyclobutane pyrimidine dimers (CPDs) determined by specific antibody binding, and on-going DNA repair [proliferating cell nuclear antigen (PCNA); see Savio, M. et al., Carcinogenesis (1998) 19:591–596; Rudolph, P. et al., Hum Pathol (1998) 29:1480–1487].

[1] = Skin penetration of fluorescently-labeled oligonucleotides (ear); assay type: in vivo, Mice; details: in propylene glycol, 4 hours
Description: The compounds of the present invention were tested for skin penetration and in vivo melanogenic activity. Mice were treated (on their ears) with fluorescently-labeled pTpT or SEQ ID NO: 1 (comprising a 5′ phosphate) in propylene glycol for 4 hours, then ear skin was sectioned and examined by confocal microscopy. […] Thus pTpT and SEQ ID NO: 1 comparably penetrate the skin barrier.

melanin in ear skin = assay: In vivo melanogenic activity on ears (Fontana Masson); design: species or system mice; details: 100 μM once daily in propylene glycol; 15 days
Description: In another experiment, mice were treated once daily with either 100 μM pTpT or SEQ ID NO: 1 containing a 5′ phosphate in propylene glycol on one ear, or vehicle alone on the other ear. After 15 days, when the ears were sectioned and stained with Fontana Masson to detect melanin compared to vehicle controls, there was a 70% increase in pigmentation in pTpT-treated ears and a 250% increase with SEQ ID NO: 1. Thus, both compounds comprising as few as 2 and as many as 9 nucleotides are effective at producing the in vitro UV-mimetic effects in vivo.

MM-AN cells = assay: Metastatic potential of pretreated MM-AN cells in SCID mice; assay type: in vivo; details: for animals that developed multiple metastases: 5 mice per group, 40 days; for METASTASIS FREE: animals of 5; for Total Tumor Load (5 animals): mouse, in vivo; for Average tumors per animal: visible tumors, 40 days (diluent 15.8)
Description: To study the effect of T-oligo on the metastatic potential of melanoma cells, cultures of MM-AN cells were treated for 48 hours with T-oligo, complement or diluent alone and harvested as described above. 1×10^6 cells in balanced salt solution were injected into the lateral tail vein of 5-week old SCID mice (3 groups of 5 mice). After 40 days, mice were sacrificed by CO2 inhalation, an autopsy performed and organs examined macroscopically for visible metastatic lesions.

[2] = tested on: Apurinic Endonuclease-1 (APE-1); assay: APE-1 western blot in fibroblasts; assay type: cell-based, human; details: 100 μM pTpT; 10 μM or 60 μM SEQ ID NO:5; within 24 hours, sustained at least 48 hours
Description: Fibroblasts (human newborn) were maintained in 10% CS-supplemented DMEM containing 100 μM pTpT, 10 μM or 60 μM oligonucleotide pGTTAGGGTTAG (SEQ ID NO:5), or diluent as control. Total cellular proteins were harvested at different intervals after supplementation and processed for western blot analysis. Expression of APE-1, the rate-limiting enzyme in repair of 8-oxoguanine (the principal form of oxidative DNA damage) was studied. The blot was incubated with anti APE-1 antibodies (APE/Ref-1 monoclonal IgG2b, Novus Biologicals, Inc. Littleton, Colo.). Within 24 hours of supplementation with pTpT or the 11mer oligonucleotide having nucleotide sequence SEQ ID NO:5, the 37 kDa APE-1 protein was induced in samples stimulated with the oligonucleotides as compared to diluent control. The induction was sustained for at least 48 hours, when the experiment was terminated. Coomassie blue-stained residual bands on the gel confirmed uniform loading of the different lanes.

T cell proliferation = assay: Allogenic mixed lymphocyte reaction with keratinocyte culture medium; assay type: cell-based, human; details: >10 kD components of culture medium from 72 hour sample
Description: The immunomodulatory effect of pTpT was tested in vitro using human keratinocytes. Duplicate cultures of primary human keratinocytes were treated with pTpT, diluent or UVB irradiation (200 J/m^2) or sham irradiation. Cells were collected at various times after treatment and analyzed for IL-10 protein by ELISA and for IL-10 mRNA by RT-PCR. An increase in IL-10 mRNA was detected after 6 hours in irradiated cells and after 48 hours in pTpT treated cells. An increase in IL-10 protein of 18 pg/ml was detected 24 hours after irradiation and 15±2 pg/ml 72 hours after treatment with pTpT. […] In the allogenic MLR, T cell activation is measured as lymphocyte proliferation, measured by ^3H-thymidine incorporation. IL-10 activity of culture medium from the 72 hour pTpT sample was measured by addition of the >10 kD components (containing the 18 kD IL-10 protein). […] Thus, like UVB irradiation, pTpT induces IL-10 in human keratinocytes which is likely to cooperate with TNFα to inhibit contact hypersensitivity in pTpT treated skin.

Row | Substance | CPD (+) cells per 400× microscopic field (mouse skin) | skin penetration (confocal microscopy) [1] | increase in pigmentation compared to vehicle controls (melanin in ear skin) [%] | animals that developed multiple metastases (MM-AN cells) | Animals with tumors (MM-AN cells; Site: Adrenal) | Total tumors (MM-AN cells; Site: Adrenal) | Animals with tumors (MM-AN cells; Site: Bone) | Total tumors (MM-AN cells; Site: Bone) | Animals with tumors (MM-AN cells; Site: Brain) | Total tumors (MM-AN cells; Site: Brain) | Animals with tumors (MM-AN cells; Site: Brown fat) | Total tumors (MM-AN cells; Site: Brown fat) | Animals with tumors (MM-AN cells; Site: Kidney) | Total tumors (MM-AN cells; Site: Kidney) | Animals with tumors (MM-AN cells; Site: Liver) | Total tumors (MM-AN cells; Site: Liver) | Animals with tumors (MM-AN cells; Site: Lung) | Total tumors (MM-AN cells; Site: Lung) | Animals with tumors (MM-AN cells; Site: Miscellaneous) | Total tumors (MM-AN cells; Site: Miscellaneous) | also measured
1 | pGAGTATGAG (DNA, 5' {P}, backbone not given here) [SEQ ID NO: 1] | none | brightly stained epidermis and hair follicles | 250 |  |  |  |  |  |  |  |  |  |  |  |  |  |  |  |  |  | 
2 | pGTTAGGGTTAG (DNA {P}-dGdTdTdAdGdGdGdTdTdAdG) [SEQ ID NO: 5] |  |  |  | one of five animals | 1/5 | 2 | 0/5 | 0 | 1/5 | 2 | 0/5 | 0 | 0/5 | 0 | 0/5 | 0 | 0/5 | 0 | 0/5 | 0 | Animals with tumors (MM-AN cells; Site: Pancreas): 0/5; Total tumors (MM-AN cells; Site: Pancreas): 0; METASTASIS FREE (MM-AN cells): 4/5; reduction of average volume of macroscopic metastatic tumors (MM-AN cells; compared to complement treated animals): ~80%; reduction of average volume of macroscopic metastatic tumors (MM-AN cells; compared to diluent treated animals): about 85%; Total Tumor Load (5 animals) (MM-AN cells): 4; Average tumors per animal (MM-AN cells): 0.8; APE-1 protein [2]: induced
3 | thymidine dinucleotide [pTpT] | none | brightly stained epidermis and hair follicles | 70 |  |  |  |  |  |  |  |  |  |  |  |  |  |  |  |  |  | reduction in T cell proliferation (T cell proliferation): 80±5%; APE-1 protein [2]: induced
4 | pCTAACCCTAAC (DNA, 5' {P}, backbone not given here) [SEQ ID NO: 9, reference compound] |  |  |  | All five animals | 2/5 | 3 | 1/5 | 3 | 3/5 | 3 | 3/5 | 8 | 4/5 | 7 | 2/5 | 4 | 3/5 | 6 | 1/5 | 7 | Animals with tumors (MM-AN cells; Site: Pancreas): 4/5; Total tumors (MM-AN cells; Site: Pancreas): 7; METASTASIS FREE (MM-AN cells): 0/5; Total Tumor Load (5 animals) (MM-AN cells): 48; Average tumors per animal (MM-AN cells): 9.6
